Patent US4611001A, “Antimycotic pyrazolotetrathiepins” (E. I. Du Pont de Nemours and Company, priority 1985, dated 1986)
≈ marks a conversion by molar mass, not a printed value.

Columns and labels:
fungi = assay: in vitro antifungal (antimycotic) activity, general statement; assay type: cell-based; settings: by-product; test not specified
Description: (§1) The fused pyrazolotetrathiepins of the invention are useful as antimycotic agents. The data is a result of different state of the art protocols, which employ either agar dilution or microtiter broth dilution techniques.

[1] = test system: Candida albicans (CAND-1); assay: Protocol 5: microtiter broth dilution MIC/MFC, EMEM broth pH 7.4; assay type: cell-based, Candida albicans ATCC 11651
Description: as §1
(§2) The test organisms used are two yeasts, Candida albicans ATCC 11651 (CAND-1), C. albicans ATCC e10231 (CAND-2) and two dermatophyte strains. Microsporum gypseum ATCC e9083 (MICRO-1) and Trichophyton rubrum ATCC 18756 (TRICH-1). These organisms are standardized to a concentration of 10^7 organisms/mL, aliquoted and frozen at -70°.
(§3) The compounds are dissolved in dimethyl sulfoxide (DMSO) and tested at specific concentrations required for the particular assay.
(§4) Appropriate standards are included with each assay. Their minimal inhibitory concentrations (MIC) values are shown in Table 4 according to the particular protocol used. Stock solutions of standard agents are stored at -70° and diluted the day of the assay.
(§5) Protocols 4 and 5 both utilize a standard microtiter broth dilution method described by Barry (Antimicrobic Susceptibilty Test: Principles and Practices, Lea and Febiger, 1976) but each uses a different medium. Protocol 4 uses Yeast Nitrogen Base broth pH 7.0 [Shadomy, S. Applied Microbiology, 17, 871-877 (1969)] while protocol 5 uses EMEM broth pH 7.4. The test organisms, CAND-1 and CAND-2 are diluted in the appropriate broth to achieve an inoculum of 1×10^4 CFUs/mL.
(§6) The compounds are tested from 100 μg/mL-0.4 μg/mL in 10-two fold serial dilutions and the assay is incubated at 37°, 5% CO2 for 24 hrs. MFC's are then determined as previously described but the plates are incubated under the conditions appropriate for Candida spp.

[2] = test system: Candida albicans (CAND-2); assay: as above; assay type: cell-based, C. albicans ATCC e10231
Description: as §1, §2, §3, §4, §5, §6

[3] = test system: Candida albicans (CAND-1); assay: Protocol 4: microtiter broth dilution MIC, Yeast Nitrogen Base broth pH 7.0; assay type: cell-based, Candida albicans ATCC 11651; settings: for MIC: Candida albicans
Description: as §1, §2, §3, §4, §5, §6

[4] = test system: Candida albicans (CAND-2); assay: as above; assay type: cell-based, C. albicans ATCC e10231; settings: for MIC: Candida albicans
Description: as §1, §2, §3, §4, §5, §6

[5] = test system: Candida albicans (CAND-1); assay: In vitro dilution MIC, protocol not given; assay type: cell-based, Candida albicans ATCC 11651; settings: up to 100 μg/mL
Description: as §1, §2, §3
(§7) Protocols 4 and 5 both utilize a standard microtiter broth dilution method described by Barry (Antimicrobic Susceptibilty Test: Principles and Practices, Lea and Febiger, 1976) but each uses a different medium. Protocol 4 uses Yeast Nitrogen Base broth pH 7.0 [Shadomy, S. Applied Microbiology, 17, 871-877 (1969)] while protocol 5 uses EMEM broth pH 7.4. […]
as §6

[6] = test system: Candida albicans (CAND-2); assay: In vitro dilution MIC, protocol not given; assay type: cell-based, C. albicans ATCC e10231; settings: up to 100 μg/mL
Description: as §1, §2, §3, §7, §6

[7] = test system: Microsporum gypseum (MICRO-1); assay: Protocol 2: agar dilution MIC, Eagle's Minimum Essential Medium Agar (EMEM); assay type: cell-based, Microsporum gypseum ATCC e9083; settings: Nannizzia gypsea
Description: as §1, §2, §3, §4
(§8) Protocols 1 & 2 use a modification of the agar dilution method (Barry, A. L., The Antimicrobic Susceptibility Test: Principles and Practices, Lea and Febiger, 1976) with either Sabouraud dextrose agar (protocol 1) or Eagle's Minimum Essential Medium Agar (EMEM) (protocol 2).
(§9) The compound is tested at four specific concentrations within the range of 100 μg/mL-0.04 μg/mL and is incorporated directly into 20 mL molten agar (50°). The plates are then inoculated with the spore suspensions of MICRO-1 and TRICH-1 at 5×10^6 spores/mL using a multi point inoculator. The plates are incubated at ambient temperature for seven days and the MIC values determined.

[8] = test system: Trichophyton rubrum (TRICH-1); assay: as above; assay type: cell-based, Trichophyton rubrum ATCC 18756
Description: as §1, §2, §3, §4, §8, §9

[9] = test system: Trichophyton rubrum (TRICH-1); assay: Protocol 3: microtiter broth dilution MIC/MFC for dermatophytes, EMEM; assay type: cell-based, Trichophyton rubrum ATCC 18756
Description: as §1, §2, §3, §4
(§10) Protocol 3 is a microtiter broth dilution assay that has been adapted for dermatophytes using EMEM and is described by Granade and Artis, J. Clin. Micro., 6, 1043-1047 (1982). Both strains of dermatophytes, MICRO-1 and TRICH-1 are diluted in broth to achieve an inoculum of 1×10^4 spores/mL. The compound is serially diluted from 100 μg/mL to 0.4 μg/mL in 10-two fold dilutions. The test is incubated at 30° for 72 hrs and the MIC values are determined. The minimum fungicidal concentration (MFC) assay is performed using the 72 hr microtiter plates. (Szoka, F., Mycology Observer, November-December, 1983). These plates are shaken vigorously and lμl/broth well is transferred with a micropipetter onto the appropirate well on a 24 well agar (EMEM) plate. These plates are then incubated at 30° for 72 hrs and read for MFC's.

[10] = test system: Microsporum gypseum (MICRO-1); assay: as above; assay type: cell-based, Microsporum gypseum ATCC e9083; settings: Nannizzia gypsea
Description: as §1, §2, §3, §4, §10

[11] = test system: Trichophyton rubrum (TRICH-1); assay: Protocol 1: agar dilution MIC, Sabouraud dextrose agar; assay type: cell-based, Trichophyton rubrum ATCC 18756
Description: as §1, §2, §3
(§11) Appropriate standards are included with each assay. Their minimal inhibitory concentrations (MIC) values are shown in Table 4 according to the particular protocol used. Stock solutions of standard agents are stored at -70° and diluted the day of the assay. […]
(§12) The compound is tested at four specific concentrations within the range of 100 μg/mL-0.04 μg/mL and is incorporated directly into 20 mL molten agar (50°). […] The plates are incubated at ambient temperature for seven days and the MIC values determined.

[12] = test system: Microsporum gypseum (MICRO-1); assay: as above; assay type: cell-based, Microsporum gypseum ATCC e9083; settings: Nannizzia gypsea
Description: as §1, §2, §3, §11, §12

[13] = Candida albicans, Protocol 5, mean of five determinations ± standard deviation, read-out: MIC CAND-1 of standards
[14] = Candida albicans, Protocol 5, mean of five determinations ± standard deviation, read-out: MIC CAND-2 of standards
[15] = Protocol 4, mean of five determinations ± standard deviation, read-out: MIC CAND-1 of standards
[16] = Protocol 4, mean of five determinations ± standard deviation, read-out: MIC CAND-2 of standards
[17] = Protocol 5, mean of five determinations ± standard deviation
[18] = Protocol 4, mean of five determinations ± standard deviation
[19] = 168 h, Protocol 2, ambient temperature, seven days, read-out: MIC MICRO-1
[20] = 168 h, Protocol 2, ambient temperature, seven days, read-out: MIC TRICH-1
[21] = Candida albicans, Protocol 5, 37°, 5% CO2, 24 hrs, read-out: MIC CAND-1
[22] = Candida albicans, Protocol 5, 37°, 5% CO2, 24 hrs, read-out: MIC CAND-2

CC1(C)SSc2cn(-c3ccccc3)nc2SS1 [3,3-dimethyl-7-phenyl-1,2,4,5-pyrazolotetrathiepin]
activity (in words) (fungi): inactive

Nc1nc(=O)[nH]cc1F [5-Fluorocytosine]
MIC [1, 13]: 1.1 ± 0.4 µg/mL (≈ 8.52 µM)
MIC [2, 14]: 1.3 ± 0.4 µg/mL (≈ 10.1 µM)
MIC [3, 15]: 0.7 ± 0.2 µg/mL (≈ 5.42 µM)
MIC [4, 16]: 1.1 ± 0.4 µg/mL (≈ 8.52 µM)

C[C@@H]1[C@H](O)[C@@H](C)/C=C/C=C/C=C/C=C/C=C/C=C/C=C/[C@H](O[C@@H]2O[C@H](C)[C@@H](O)[C@H](N)[C@@H]2O)C[C@@H]2O[C@](O)(C[C@@H](O)C[C@@H](O)[C@H](O)CC[C@@H](O)C[C@@H](O)CC(=O)O[C@H]1C)C[C@H](O)[C@H]2C(=O)O [Amphotericin B]
MIC CAND-1 of standards [1, 17]: 0.5 ± 0.3 µg/mL
MIC CAND-2 of standards [2, 17]: 0.7 ± 0.3 µg/mL
MIC CAND-1 of standards [3, 18]: 0.6 ± 0.2 µg/mL
MIC CAND-2 of standards [4, 18]: 0.5 ± 0.3 µg/mL

CC1(C)SSSc2nn(-c3ccccc3)cc2S1 [Example 2, 2,2-Dimethyl-7-phenyl-1,3,4,5-pyrazolotetrathiepin]
MIC CAND-1 (in words) [5]: Inactive at 100 μg/mL
MIC CAND-2 (in words) [6]: Inactive at 100 μg/mL
MIC [7, 19]: 1 µg/mL (≈ 3.2 µM)
MIC [8, 20]: 0.2 µg/mL (≈ 0.64 µM)

CC1(C)SSSc2cn(-c3ccccc3)nc2S1 [Example 3, 4,4-Dimethyl-7-phenyl-1,2,3,5-pyrazolotetrathiepin]
MIC CAND-1 (in words) [5]: Inactive at 100 μg/mL
MIC CAND-2 (in words) [6]: Inactive at 100 μg/mL
MIC [7, 19]: 1 µg/mL (≈ 3.2 µM)
MIC [8, 20]: 1 µg/mL (≈ 3.2 µM)

Cn1cc2c(n1)SSC(C)(C)SS2 [Example 4, 3,3-Dimethyl-7-methyl-1,2,4,5-pyrazolotetrathiepin]
MIC [1, 21]: 25 µg/mL (≈ 99.8 µM)
MFC ([1]; Candida albicans, Protocol 5, in brackets, read-out: MFC CAND-1 (minimum fungicidal concentration)): 50 µg/mL (≈ 200 µM)
MIC [2, 22]: 25 µg/mL (≈ 99.8 µM)
MFC ([2]; Candida albicans, Protocol 5, in brackets, read-out: MFC CAND-2 (minimum fungicidal concentration)): 50 µg/mL (≈ 200 µM)
MIC ([9]; Protocol 3, 30°, 72 hrs, read-out: MIC TRICH-1): 12.5 µg/mL (≈ 49.9 µM)
MFC ([9]; Protocol 3, in brackets, subculture on EMEM agar 30°, 72 hrs, read-out: MFC TRICH-1 (minimum fungicidal concentration)): 25 µg/mL (≈ 99.8 µM)
MIC ([10]; Protocol 3, 30°, 72 hrs, read-out: MIC MICRO-1): 12.5 µg/mL (≈ 49.9 µM)
MFC ([10]; Protocol 3, in brackets, subculture on EMEM agar 30°, 72 hrs, read-out: MFC MICRO-1 (minimum fungicidal concentration)): 25 µg/mL (≈ 99.8 µM)

Cn1cc2c(n1)SSSC(C)(C)S2 [Example 5, 2,2-Dimethyl-7-methyl-1,3,4,5-pyrazolotetrathiepin]
MIC ([11]; 168 h, Protocol 1, ambient temperature, seven days, read-out: MIC TRICH-1): 4 µg/mL (≈ 16 µM)
MIC [1, 21]: 3.2 µg/mL (≈ 12.8 µM)
MIC [2, 22]: 1.6 µg/mL (≈ 6.39 µM)
MIC ([3]; Protocol 4, 37°, 5% CO2, 24 hrs, read-out: MIC CAND-1): 12.5 µg/mL (≈ 49.9 µM)
MIC ([12]; 168 h, Protocol 1, ambient temperature, seven days, read-out: MIC MICRO-1): 4 µg/mL (≈ 16 µM)
MIC ([4]; Protocol 4, 37°, 5% CO2, 24 hrs, read-out: MIC CAND-2): 6.3 µg/mL (≈ 25.2 µM)

COC1=CC(=O)C[C@@H](C)[C@]12Oc1c(Cl)c(OC)cc(OC)c1C2=O [Griseofulvin]
MIC ([7]; Protocol 2, mean of five determinations ± standard deviation, read-out: MIC MICRO-1 of standards): 4.5 ± 3 µg/mL (≈ 12.8 µM)
MIC ([11]; Protocol 1, mean of five determinations ± standard deviation, read-out: MIC TRICH-1 of standards): 1.8 ± 0.7 µg/mL (≈ 5.1 µM)
MIC ([8]; Protocol 2, mean of five determinations ± standard deviation, read-out: MIC TRICH-1 of standards): 9.4 ± 4 µg/mL (≈ 26.6 µM)
MIC ([9]; Protocol 3, mean of five determinations ± standard deviation, read-out: MIC TRICH-1 of standards): 6.3 µg/mL (≈ 17.9 µM)
MIC ([10]; Protocol 3, mean of five determinations ± standard deviation, read-out: MIC MICRO-1 of standards): 5.4 ± 2 µg/mL (≈ 15.3 µM)
MIC ([12]; Protocol 1, mean of five determinations ± standard deviation, read-out: MIC MICRO-1 of standards): 2 ± 0.7 µg/mL (≈ 5.67 µM)

CC(=O)N1CCN(c2ccc(OCC3COC(Cn4ccnc4)(c4ccc(Cl)cc4Cl)O3)cc2)CC1 (stereo not shown) [Ketoconazole]
MIC [1, 13]: 0.3 ± 0.04 µg/mL (≈ 0.565 µM)
MIC [2, 14]: 0.2 ± 0.04 µg/mL (≈ 0.376 µM)
MIC [3, 15]: 0.15 ± 0.1 µg/mL (≈ 0.282 µM)
MIC [4, 16]: 0.22 ± 0.04 µg/mL (≈ 0.414 µM)

Clc1ccc(COC(Cn2ccnc2)c2ccc(Cl)cc2Cl)c(Cl)c1 (stereo not shown) [Miconazole]
MIC ([1]; Candida albicans, read-out: MIC CAND-1 of standards): 0.5 ± 0.4 µg/mL (≈ 1.2 µM)
MIC ([2]; Candida albicans, read-out: MIC CAND-2 of standards): 0.5 ± 0.4 µg/mL (≈ 1.2 µM)
MIC ([3]; read-out: MIC CAND-1 of standards): 0.36 ± 0.12 µg/mL (≈ 0.865 µM)
MIC ([4]; read-out: MIC CAND-2 of standards): 0.5 ± 0.2 µg/mL (≈ 1.2 µM)

C[C@@H]1[C@H](O)[C@@H](C)/C=C/C=C/CC/C=C/C=C/C=C/C=C/C(O[C@H]2O[C@H](C)[C@@H](O)[C@H](N)[C@@H]2O)CC2O[C@](O)(CC(O)C(O)CCC(O)CC(O)CC(O)CC(=O)O[C@H]1C)CC(O)C2C(=O)O (stereo partly shown) [Nystatin]
MIC CAND-1 of standards [1, 17]: 5.0 ± 0 µg/mL
MIC CAND-2 of standards [2, 17]: 4.5 ± 1.0 µg/mL
MIC CAND-1 of standards [3, 18]: 6.0 ± 2.0 µg/mL
MIC CAND-2 of standards [4, 18]: 5.0 ± 1.5 µg/mL
